Where two headings read alike, the source gives them in different places.
Columns and labels:
Format in all cases: cell-based
MCF-7 = assay: CellTiterGlo viability assay, initial screening; conditions: Homo sapiens, read-out: IC50 (relative IC50)
Experimental: (§1) In vitro viability assays were performed to assess the effects of compounds on cell viability in 7 selected cell lines over 72 hr using the CellTiterGlo (CTG, Promega-G7573) assay. The tests were performed in duplicates with treatment of compounds at 9 points, 3.16 folds titration in 96 well plates over ˜72 hr. The compound starting concentrations were […]. Cell viability assay using CellTiterGlo in 96-well plate were performed. The compound treatment was 72 hrs, under standard growth conditions, and in duplicate. Compounds were dissolved to 40 mM with thawed […]. Compounds were serially diluted at 3.16 fold in thawed DMSO, and warmed to 37° C. before being dissolved in media (2 μl+200 μl). After compounds were dissolved in media (media was also warmed to 37° C.). Media containing compounds were warmed to 37° C. in incubator and then compounds in media were added to cell plates (50 μl+50 μl), in duplicates. The compounds final concentrations were from […] to 19.9 nM. All compound solubilities were checked and recorded again, then the plates were transferred to CO2 tissue culture incubator immediately and incubated for 3 days. DMSO final concentration is 0.5%.

HL-60 [1] = assay: CellTiterGlo viability assay, initial screening; conditions: Homo sapiens, read-out: IC50 (relative IC50)
Experimental: as §1

KG-1 [2] = assay: CellTiterGlo viability assay, initial screening; conditions: Homo sapiens, read-out: IC50 (relative IC50)
Experimental: as §1

K562 [3] = assay: CellTiterGlo viability assay, initial screening; conditions: Homo sapiens, read-out: IC50 (relative IC50)
Experimental: as §1

HepG2 [4] = assay: CellTiterGlo viability assay, initial screening; conditions: Homo sapiens, read-out: IC50 (relative IC50)
Experimental: as §1

MOLT-4 [5] = assay: CellTiterGlo viability assay, initial screening; conditions: Homo sapiens, read-out: IC50 (relative IC50)
Experimental: as §1

HT29 = assay: Solid tumour and haematological malignancy assay (CellTiterGlo); conditions: Homo sapiens; for IC50: read-out: IC50 (absolute IC50); for Emax: read-out: MI %
How it was run: (§2)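 Cells were exposed to compound for 72 hr under standard growth conditions, in duplicate, with 0.5% final DMSO. Viability was then read by CellTiterGlo luminescence.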

MiaPaCa-2 = assay: as above; conditions: Homo sapiens; for IC50: read-out: IC50 (absolute IC50); for Emax: read-out: MI %
How it was run: as §2

HEL92.1.7 = assay: as above; conditions: Homo sapiens; for IC50: read-out: IC50 (absolute IC50); for Emax: read-out: MI %
How it was run: as §2

HL-60 [6] = assay: as above; conditions: Homo sapiens; for IC50: read-out: IC50 (absolute IC50); for Emax: read-out: MI %
How it was run: as §2

KG-1 [7] = assay: as above; conditions: Homo sapiens; for IC50: read-out: IC50 (absolute IC50); for Emax: read-out: MI %
How it was run: as §2

K562 [8] = assay: as above; conditions: Homo sapiens; for IC50: read-out: IC50 (absolute IC50); for Emax: read-out: MI %
How it was run: as §2

HepG2 [9] = assay: as above; conditions: Homo sapiens; for IC50: read-out: IC50 (absolute IC50); for Emax: read-out: MI %
How it was run: as §2

MCF7 = assay: as above; conditions: Homo sapiens; for IC50: read-out: IC50 (absolute IC50); for Emax: read-out: MI %
How it was run: as §2

CCRFCEM = assay: as above; conditions: Homo sapiens, CCRF-CEM; for IC50: read-out: IC50 (absolute IC50); for Emax: read-out: MI %
How it was run: as §2

Z138 = assay: as above; conditions: Homo sapiens; for IC50: read-out: IC50 (absolute IC50); for Emax: read-out: MI %
How it was run: (§3)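 Cells were treated in duplicate with a 9-point, 3.16-fold dilution series for about 72 h under standard growth conditions. Final concentrations ran from […] to 19.9 nM, with 0.5% DMSO. Viability was read by CellTiter-Glo luminescence.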

Jurkat = assay: as above; conditions: Homo sapiens, read-out: IC50 (absolute IC50)
How it was run: as §3

NCI-H929 = assay: as above; conditions: Homo sapiens; for IC50: read-out: IC50 (absolute IC50); for Emax: read-out: MI %
How it was run: as §3

BxPC-3 = assay: as above; conditions: Homo sapiens, read-out: IC50 (absolute IC50)
How it was run: as §3

MOLT-4 [10] = assay: as above; conditions: Homo sapiens; for IC50: read-out: IC50 (absolute IC50); for Emax: read-out: MI %
How it was run: as §3

SMILES: CCOC(=O)CCc1ccccc1OP(=O)(N[C@@H](C)C(=O)OCc1ccccc1)OC[C@@H]1C[C@@H](O)[C@H](n2cnc3c(N)ncnc32)O1 (stereo partly drawn) [F, (2S)-benzyl 2-(((((2S,4R,5R)-5-(6-amino-9H-purin-9-yl)-4-hydroxytetrahydrofuran-2-yl)methoxy)(2-(3-ethoxy-3-oxopropyl)phenoxy)phosphoryl)amino)propanoate]
- IC50 (MCF-7; MCF7, 72 h): 5 to 15 µM
- IC50 (HL-60 [1]; HL-60, 72 h): 15 to 100 µM
- IC50 (KG-1 [2]; KG-1, 72 h): 15 to 100 µM
- IC50 (K562 [3]; K562, 72 h): 15 to 100 µM
- IC50 (HepG2 [4]; HepG2, 72 h): 15 to 100 µM
- IC50 (MOLT-4 [5]; MOLT-4, 72 h): 0.1 to 5 µM
- IC50 (HT29; HT-29, 72 h): 15 to 100 µM
- IC50 (MiaPaCa-2; MIA PaCa-2, 72 h): 5 to 15 µM
- IC50 (HEL92.1.7; HEL 92.1.7, 72 h): 5 to 15 µM
- IC50 (HL-60 [6]; HL-60, 72 h): 5 to 15 µM
- IC50 (KG-1 [7]; KG-1, 72 h): 15 to 100 µM
- IC50 (K562 [8]; K562, 72 h): 0.1 to 5 µM
- IC50 (HepG2 [9]; HepG2, 72 h): 15 to 100 µM
- IC50 (MCF7; MCF7, 72 h): 5 to 15 µM
- IC50 (CCRFCEM; 72 h): 0.1 to 5 µM
- IC50 (Z138; Z-138, 72 h): 15 to 100 µM
- IC50 (Jurkat; 72 h): 0.1 to 5 µM
- IC50 (NCI-H929; NCI-H929, 72 h): 5 to 15 µM
- Emax (NCI-H929; NCI-H929, 72 h): 100%
- IC50 (BxPC-3; BXPC-3, 72 h): 15 to 100 µM
- IC50 (MOLT-4 [10]; MOLT-4, 72 h): 0.1 to 5 µM

SMILES: Nc1ncnc2c1ncn2[C@@H]1O[C@H](COP(=O)(NCC(=O)OCc2ccccc2)Oc2ccccc2)C[C@H]1O (stereo partly drawn) [C, Benzyl 2-(((((2S,4R,5R)-5-(6-amino-9H-purin-9-yl)-4-hydroxytetrahydrofuran-2-yl)methoxy)(phenoxy)phosphoryl)amino)acetate]
- IC50 (MCF-7; MCF7, 72 h): 5 to 15 µM
- IC50 (HL-60 [1]; HL-60, 72 h): 15 to 100 µM
- IC50 (KG-1 [2]; KG-1, 72 h): > 100 µM
- IC50 (K562 [3]; K562, 72 h): 5 to 15 µM
- IC50 (HepG2 [4]; HepG2, 72 h): 15 to 100 µM
- IC50 (MOLT-4 [5]; MOLT-4, 72 h): 0.1 to 5 µM
- IC50 (HT29; HT-29, 72 h): 15 to 100 µM
- Emax (HT29; HT-29, 72 h): 99%
- IC50 (MiaPaCa-2; MIA PaCa-2, 72 h): 5 to 15 µM
- Emax (MiaPaCa-2; MIA PaCa-2, 72 h): 106%
- IC50 (HEL92.1.7; HEL 92.1.7, 72 h): 0.1 to 5 µM
- Emax (HEL92.1.7; HEL 92.1.7, 72 h): 99%
- IC50 (HL-60 [6]; HL-60, 72 h): 5 to 15 µM
- Emax (HL-60 [6]; HL-60, 72 h): 100%
- IC50 (KG-1 [7]; KG-1, 72 h): 15 to 100 µM
- Emax (KG-1 [7]; KG-1, 72 h): 102%
- IC50 (K562 [8]; K562, 72 h): 5 to 15 µM
- Emax (K562 [8]; K562, 72 h): 100%
- IC50 (HepG2 [9]; HepG2, 72 h): 15 to 100 µM
- Emax (HepG2 [9]; HepG2, 72 h): 99%
- IC50 (MCF7; MCF7, 72 h): 0.1 to 5 µM
- Emax (MCF7; MCF7, 72 h): 102%
- IC50 (CCRFCEM; 72 h): 5 to 15 µM
- Emax (CCRFCEM; 72 h): 100%
- IC50 (Z138; Z-138, 72 h): 5 to 15 µM
- Emax (Z138; Z-138, 72 h): 100%
- IC50 (Jurkat; 72 h): 5 to 15 µM
- IC50 (NCI-H929; NCI-H929, 72 h): 5 to 15 µM
- Emax (NCI-H929; NCI-H929, 72 h): 104%
- IC50 (BxPC-3; BXPC-3, 72 h): 15 to 100 µM
- IC50 (MOLT-4 [10]; MOLT-4, 72 h): 0.1 to 5 µM
- Emax (MOLT-4 [10]; MOLT-4, 72 h): 92%

SMILES: Nc1ncnc2c1ncn2[C@@H]1O[C@H](CO)C[C@H]1O [Cordycepin, 3′-deoxyadenosine, reference compound]
- IC50 (MCF-7; MCF7, MCF-7, 72 hr): 15 to 100 µM
- IC50 (HL-60 [1]; HL-60, 72 hr): 15 to 100 µM
- IC50 (KG-1 [2]; KG-1, 72 hr): 15 to 100 µM
- IC50 (K562 [3]; K562, 72 hr): 15 to 100 µM
- IC50 (HepG2 [4]; HepG2, 72 hr): 15 to 100 µM
- IC50 (MOLT-4 [5]; MOLT-4, 72 hr): 15 to 100 µM
- IC50 (HT29; HT-29, HT29, 72 hr): > 100 µM
- Emax (HT29; HT-29, HT29, 72 hr): 44%
- IC50 (MiaPaCa-2; MIA PaCa-2, MiaPaCa-2, 72 hr): > 100 µM
- Emax (MiaPaCa-2; MIA PaCa-2, MiaPaCa-2, 72 hr): 35%
- IC50 (HEL92.1.7; HEL 92.1.7, HEL92.1.7, 72 hr): 15 to 100 µM
- Emax (HEL92.1.7; HEL 92.1.7, HEL92.1.7, 72 hr): 88%
- IC50 (HL-60 [6]; HL-60, 72 hr): > 100 µM
- Emax (HL-60 [6]; HL-60, 72 hr): 61%
- IC50 (KG-1 [7]; KG-1, 72 hr): > 100 µM
- Emax (KG-1 [7]; KG-1, 72 hr): 69%
- IC50 (K562 [8]; K562, 72 hr): 15 to 100 µM
- Emax (K562 [8]; K562, 72 hr): 78%
- IC50 (HepG2 [9]; HepG2, 72 hr): > 100 µM
- Emax (HepG2 [9]; HepG2, 72 hr): 13%
- IC50 (MCF7; MCF7, 72 hr): > 100 µM
- Emax (MCF7; MCF7, 72 hr): 77%
- IC50 (CCRFCEM; CCRFCEM, 72 hr): > 100 µM
- Emax (CCRFCEM; CCRFCEM, 72 hr): 41%
- IC50 (Z138; Z-138, Z138, 72 hr): 5 to 15 µM
- Emax (Z138; Z-138, Z138, 72 hr): 95%
- IC50 (Jurkat; 72 hr): > 100 µM
- IC50 (NCI-H929; NCI-H929, 72 hr): > 100 µM
- Emax (NCI-H929; NCI-H929, 72 hr): 24%
- IC50 (BxPC-3; BxPC-3, 72 hr): > 100 µM
- IC50 (MOLT-4 [10]; MOLT-4, 72 hr): > 100 µM
- Emax (MOLT-4 [10]; MOLT-4, 72 hr): 46%

From patent US10570168B2, “2′ and/or 5′ amino-acid ester phosphoramidate 3′-deoxy adenosine derivatives as anti- cancer compounds” (NuCana plc, priority 2014, dated 2020)
